Reference: patent publication US10780090B2, “Heteroaryl compounds useful as inhibitors of SUMO activating enzyme” (Millennium Pharmaceuticals, Inc., priority 2014, dated 2020)

Target: recombinant human SAE enzyme (Homo sapiens (Human), UniProt Q9UBT2)
Assay: SAE HTRF enzyme assay
Format: biochemical
Details: for inhibition at 0.111 µM: read-out: Percent Inhibition
In short: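 Sumoylation of Ubc9-GST by SAE was followed at low ATP (0.5 μM), pH 7.5, 24° C. for 105 min. Product was detected by HTRF with antibody pairs against Flag and GST tags.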

[1] = SAE inhibition at compound concentration 0.111 μM
[2] = SAE inhibition, class symbols, legend in nM

Sequence of recombinant human SAE enzyme (Q9UBT2 whole entry): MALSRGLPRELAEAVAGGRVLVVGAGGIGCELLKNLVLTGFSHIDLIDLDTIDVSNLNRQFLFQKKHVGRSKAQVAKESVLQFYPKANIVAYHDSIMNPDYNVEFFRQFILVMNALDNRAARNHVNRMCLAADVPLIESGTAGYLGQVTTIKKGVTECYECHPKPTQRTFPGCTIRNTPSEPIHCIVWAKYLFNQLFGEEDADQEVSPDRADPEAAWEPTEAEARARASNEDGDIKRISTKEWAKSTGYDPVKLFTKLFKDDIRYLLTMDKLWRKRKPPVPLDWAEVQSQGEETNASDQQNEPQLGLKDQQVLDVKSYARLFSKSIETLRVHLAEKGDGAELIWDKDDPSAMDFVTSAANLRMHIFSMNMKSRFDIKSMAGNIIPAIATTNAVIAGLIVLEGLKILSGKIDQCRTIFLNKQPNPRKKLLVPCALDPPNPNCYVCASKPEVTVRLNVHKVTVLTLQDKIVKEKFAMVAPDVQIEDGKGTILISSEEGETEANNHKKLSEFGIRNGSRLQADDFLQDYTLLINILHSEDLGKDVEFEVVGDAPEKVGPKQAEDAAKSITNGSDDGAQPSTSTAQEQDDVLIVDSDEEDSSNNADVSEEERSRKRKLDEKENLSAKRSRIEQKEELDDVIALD
Sequence of recombinant human SAE enzyme (Q9UBE0 whole entry partner): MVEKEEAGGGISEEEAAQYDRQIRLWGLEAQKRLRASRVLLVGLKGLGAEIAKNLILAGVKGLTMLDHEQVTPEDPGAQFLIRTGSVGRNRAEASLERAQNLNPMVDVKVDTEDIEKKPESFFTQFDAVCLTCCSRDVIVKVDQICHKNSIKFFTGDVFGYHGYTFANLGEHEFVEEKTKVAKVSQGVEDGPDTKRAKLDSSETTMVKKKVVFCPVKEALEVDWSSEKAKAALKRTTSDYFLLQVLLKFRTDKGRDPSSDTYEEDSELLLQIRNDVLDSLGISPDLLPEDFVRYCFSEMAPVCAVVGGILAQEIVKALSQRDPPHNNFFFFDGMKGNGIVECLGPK

Row | Compound | Percent Inhibition [1] | IC50 [2] | Percent Inhibition (Concentration 0.111 μM) | IC50 (class symbols A/B/C) | inhibition at 0.111 µM (Concentration 0.111 μM)
1 | Cc1sc(C(=O)c2cncnc2N[C@@H]2C[C@H](COS(N)(=O)=O)[C@@H](O)C2)cc1[C@H]1SCc2ccc(Cl)cc21 (racemic) [I-359b, [(1RS,2SR,4RS)-4-[5-[4-[(1S)-6-chloro-1,3-dihydro-2-benzothiophene-1-yl]-5-methyl-thiophene-2-carbonyl]pyrimidin-4-yl]amino]-2-hydroxy-cyclopentyl]methyl sulfamate] | 95% | < 10 nM |  |  | 
2 | N[C@H](c1cccc(Br)c1)c1cc(C(=O)c2cncnc2N[C@@H]2C[C@H](COS(N)(=O)=O)[C@@H](O)[C@H]2O)sc1Cl (single isomer, unassigned) [I-24b, [(1R,2R,3S,4R)-4-{[5-({4-[(R)-amino(3-bromophenyl)methyl]-5-chloro-2-thienyl}carbonyl)pyrimidin-4-yl]amino}-2,3-dihydroxycyclopentyl]methyl sulfamate or [(1R,2R,3S,4R)-4-{[5-({4-[(S)-amino(3-bromophenyl)methyl]-5-chloro-2-thienyl}carbonyl)pyrimidin-4-yl]amino}-2,3-dihydroxycyclopentyl]methyl sulfamate] |  |  | 101 |  | 
3 | [(1R,2S,4R)-4-{[5-({5-chloro-4-[(1S)-1,2,3,4-tetrahydroisoquinolin-1-yl]-2-thienyl}carbonyl)pyrimidin-4-yl]amino}-2-hydroxycyclopentyl]methyl sulfamate and [(1R,2S,4R)-4-{[5-({5-chloro-4-[(1R)-1,2,3,4-tetrahydroisoquinolin-1-yl]-2-thienyl}carbonyl)pyrimidin-4-yl]amino}-2-hydroxycyclopentyl]methyl sulfamate [I-279] |  |  | 99 | < 10 nM | 
4 | NS(=O)(=O)OC[C@H]1C[C@@H](Nc2ncncc2C(=O)c2cc(S(=O)(=O)c3cccc(Cl)c3)c(Cl)s2)C[C@@H]1O [I-203, [(1R,2S,4R)-4-{[5-({5-chloro-4-[(3-chlorophenyl)sulfonyl]-2-thienyl}carbonyl)pyrimidin-4-yl]amino}-2-hydroxycyclopentyl]methyl sulfamate] |  |  |  | 10 to 100 nM | 58%
5 | NS(=O)(=O)OC[C@H]1C[C@@H](Nc2ncncc2C(=O)c2cc(CSc3ccccc3Cl)cs2)C[C@@H]1O [I-147, [(1R,2S,4R)-4-({5-[(4-{[(2-chlorophenyl)sulfanyl]methyl}-2-thienyl)carbonyl]pyrimidin-4-yl}amino)-2-hydroxycyclopentyl]methyl sulfamate] |  |  |  | < 10 nM | 94%
6 | Cc1sc(C(=O)c2cncnc2N[C@@H]2C[C@H](COS(N)(=O)=O)[C@@H](O)C2)cc1[C@@H]1OCCc2ccc(Cl)nc21 (single isomer, unassigned) [I-286a, [(1R,2S,4R)-4-{[5-({4-[(8S)-2-chloro-5,8-dihydro-6H-pyrano[3,4-b]pyridin-8-yl]-5-methyl-2-thienyl}carbonyl)pyrimidin-4-yl]amino}-2-hydroxycyclopentyl]methyl sulfamate or [(1R,2S,4R)-4-{[5-({4-[(8R)-2-chloro-5,8-dihydro-6H-pyrano[3,4-b]pyridin-8-yl]-5-methyl-2-thienyl}carbonyl)pyrimidin-4-yl]amino}-2-hydroxycyclopentyl]methyl sulfamate] | 39% | 100 to 1000 nM |  |  | 
7 | Cc1cccc(Cc2cc(C(=O)c3cncnc3N[C@@H]3C[C@H](COS(N)(=O)=O)[C@@H](O)C3)sc2C)c1 [I-45, {(1R,2S,4R)-2-hydroxy-4-[(5-{[5-methyl-4-(3-methylbenzyl)-2-thienyl]carbonyl}pyrimidin-4-yl)amino]cyclopentyl}methyl sulfamate] |  |  |  | < 10 nM | 99%
8 | NS(=O)(=O)OC[C@H]1C[C@@H](Nc2ncncc2C(=O)c2cc([C@@H]3OCCc4ccc(F)cc43)c(Cl)s2)C[C@@H]1O (single isomer, unassigned) [I-294a, [(1R,2S,4R)-4-{[5-({5-chloro-4-[(1R)-7-fluoro-3,4-dihydro-1H-isochromen-1-yl]-2-thienyl}carbonyl)pyrimidin-4-yl]amino}-2-hydroxycyclopentyl]methyl sulfamate or [(1R,2S,4R)-4-{[5-({5-chloro-4-[(1S)-7-fluoro-3,4-dihydro-1H-isochromen-1-yl]-2-thienyl}carbonyl)pyrimidin-4-yl]amino}-2-hydroxycyclopentyl]methyl sulfamate] | 84% | 10 to 100 nM |  |  | 
9 | Cc1sc(C(=O)c2cncnc2N[C@@H]2C[C@H](COS(N)(=O)=O)[C@@H](O)C2)cc1CN1CCc2cccnc21 [I-171, {(1R,2S,4R)-4-[(5-{[4-(2,3-dihydro-1H-pyrrolo[2,3-b]pyridin-1-ylmethyl)-5-methyl-2-thienyl]carbonyl}pyrimidin-4-yl)amino]-2-hydroxycyclopentyl}methyl sulfamate] |  |  |  | 10 to 100 nM | 90%
10 | NS(=O)(=O)OC[C@H]1C[C@@H](Nc2ncncc2C(=O)c2cc([C@@]3(c4ccccc4)CCCO3)cs2)C[C@@H]1O (mixture of isomers) [I-32, [(1R,2S,4R)-2-hydroxy-4-{[5-({4-[(2S)-2-phenyltetrahydrofuran-2-yl]-2-thienyl}carbonyl)pyrimidin-4-yl]amino}cyclopentyl]methyl sulfamate and [(1R,2S,4R)-2-hydroxy-4-{[5-({4-[(2R)-2-phenyltetrahydrofuran-2-yl]-2-thienyl}carbonyl)pyrimidin-4-yl]amino}cyclopentyl]methyl sulfamate] |  |  | 98 | < 10 nM | 
11 | Cc1oc(C(=O)c2cncnc2N[C@@H]2C[C@H](COS(N)(=O)=O)[C@@H](O)C2)cc1Cc1cccc(Br)c1 [I-34, [(1R,2S,4R)-4-({5-[4-(3-bromobenzyl)-5-methyl-2-furoyl]pyrimidin-4-yl}amino)-2-hydroxycyclopentyl]methyl sulfamate] |  |  |  | < 10 nM | 99%
12 | NS(=O)(=O)OC[C@H]1C[C@@H](Nc2ncncc2C(=O)c2cc(Cc3cccc(Br)c3)cs2)[C@H](O)[C@@H]1O [I-26, {(1R,2R,3S,4R)-4-[(5-{[4-(3-Bromobenzyl)-2-thienyl]carbonyl}pyrimidin-4-yl)amino]-2,3-dihydroxycyclopentyl}methyl sulfamate] |  |  |  | < 10 nM | 100%
13 | N[C@H](c1cccc(Cl)n1)c1cc(C(=O)c2cncnc2N[C@@H]2C[C@H](COS(N)(=O)=O)[C@@H](O)C2)sc1Cl (single isomer, unassigned) [I-25b, [(1R,2S,4R)-4-{[5-({4-[(S)-amino(6-chloropyridin-2-yl)methyl]-5-chloro-2-thienyl}carbonyl)pyrimidin-4-yl]amino}-2-hydroxycyclopentyl]methyl sulfamate or [(1R,2S,4R)-4-{[5-({4-[(R)-amino(6-chloropyridin-2-yl)methyl]-5-chloro-2-thienyl}carbonyl)pyrimidin-4-yl]amino}-2-hydroxycyclopentyl]methyl sulfamate] |  |  | 99 | < 10 nM | 
14 | N[C@H](c1cccc(Cl)c1)c1csc(C(=O)c2cncnc2N[C@@H]2C[C@H](COS(N)(=O)=O)[C@@H](O)C2)c1 (mixture of isomers) [I-36, [(1R,2S,4R)-4-{[5-({4-[(R)-amino(3-chlorophenyl)methyl]-2-thienyl}carbonyl)pyrimidin-4-yl]amino}-2-hydroxycyclopentyl]methyl sulfamate and [(1R,2S,4R)-4-{[5-({4-[(S)-amino(3-chlorophenyl)methyl]-2-thienyl}carbonyl)pyrimidin-4-yl]amino}-2-hydroxycyclopentyl]methyl sulfamate] |  |  | 100 | < 10 nM | 
15 | NS(=O)(=O)OC[C@H]1C[C@@H](Nc2ncncc2C(=O)c2cc(Cc3cccc(Cl)c3)c(Cl)o2)C[C@@H]1O [I-72, [(1R,2S,4R)-4-({5-[5-chloro-4-(3-chlorobenzyl)-2-furoyl]pyrimidin-4-yl}amino)-2-hydroxycyclopentyl]methyl sulfamate] |  |  |  | < 10 nM | 98%
16 | NS(=O)(=O)OC[C@H]1C[C@@H](Nc2ncncc2C(=O)c2cc(CN3CCCC(F)(F)C3)cs2)C[C@@H]1O [I-224, [(1R,2S,4R)-4-{[5-({4-[(3,3-difluoropiperidin-1-yl)methyl]-2-thienyl}carbonyl)pyrimidin-4-yl]amino}-2-hydroxycyclopentyl]methyl sulfamate] |  |  |  | 100 to 1000 nM | 31%
17 | NS(=O)(=O)OC[C@H]1C[C@@H](Nc2ncncc2C(=O)c2cc([C@@]3(C4CCCCC4)CCCO3)cs2)C[C@@H]1O (mixture of isomers) [I-166, [(1R,2S,4R)-4-{[5-({4-[(2S)-2-cyclohexyltetrahydrofuran-2-yl]-2-thienyl}carbonyl)pyrimidin-4-yl]amino}-2-hydroxycyclopentyl]methyl sulfamate and [(1R,2S,4R)-4-{[5-({4-[(2R)-2-cyclohexyltetrahydrofuran-2-yl]-2-thienyl}carbonyl)pyrimidin-4-yl]amino}-2-hydroxycyclopentyl]methyl sulfamate] |  |  | 93 | 10 to 100 nM | 
18 | CC(=O)c1coc(C(=O)c2cncnc2N[C@@H]2C[C@H](COS(N)(=O)=O)[C@@H](O)C2)c1 [I-234, [(1R,2S,4R)-4-{[5-(4-Acetyl-2-furoyl)pyrimidin-4-yl]amino}-2-hydroxycyclopentyl]methyl sulfamate] |  |  |  | 100 to 1000 nM | 20%
19 | NS(=O)(=O)OC[C@H]1C[C@@H](Nc2ncncc2C(=O)c2cc(CO)c(Cc3cccc(Cl)c3)s2)C[C@@H]1O [I-142, {(1R,2S,4R)-4-[(5-{[5-(3-chlorobenzyl)-4-(hydroxymethyl)-2-thienyl]carbonyl}pyrimidin-4-yl)amino]-2-hydroxycyclopentyl}methyl sulfamate] |  |  |  | < 10 nM | 94%
20 | NS(=O)(=O)OC[C@H]1C[C@@H](Nc2ncncc2C(=O)c2cc(Cc3cccc(Cl)c3)co2)C[C@@H]1O [I-79, [(1R,2S,4R)-4-({5-[4-(3-chlorobenzyl)-2-furoyl]pyrimidin-4-yl}amino)-2-hydroxycyclopentyl]methyl sulfamate] |  |  |  |  | 97%
